The text below walks through data of PMC9667936, “Functional mapping of the 14-3-3 hub protein as a guide to design 14-3-3 molecular glues” (Chemical Science, 2022).

Test [1] concerns the target T1, 14-3-3γ/ChREBP (Homo sapiens, UniProt P61981+Q9NP71).
T1 construct: made in house; host or cells: E. coli NiCo21 (DE3) for 14-3-3 gamma; ChREBP is a synthetic peptide
T1 sequence (P61981 1-247): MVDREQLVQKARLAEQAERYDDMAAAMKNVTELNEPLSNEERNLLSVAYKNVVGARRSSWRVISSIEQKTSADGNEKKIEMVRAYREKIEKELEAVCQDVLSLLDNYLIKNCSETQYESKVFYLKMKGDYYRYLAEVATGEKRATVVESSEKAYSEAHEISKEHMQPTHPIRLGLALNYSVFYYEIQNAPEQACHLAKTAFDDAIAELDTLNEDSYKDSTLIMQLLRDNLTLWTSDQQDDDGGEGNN
T1 sequence (Q9NP71 118-142 partner limits assumed): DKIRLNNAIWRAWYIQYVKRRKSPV
Put plainly: 2D FA titration of 14-3-3/ChREBP and cooperativity analysis with thermodynamic equilibrium model. The class given is binding. The conditions noted are these: 14-3-3γ/ChREBP/2d ternary complex; 2D FA titration (20 nM FITC-2d, 0.01–10 μM ChREBP) fitted to thermodynamic equilibrium model; n = 2. The procedure: (§1) a four-parameter logistic model (4PL). Each measurement was performed in two independent […]
(§2) Fluorescence anisotropy (FA) - 2D-14-3-3/ChREBP titrations: 14-3-3γ was titrated in a 2-fold dilution series (starting at 300 µM 14-3-3γ) to 20 nM of fluorescein-labeled peptide 2d in FA buffer (10 mM HEPES pH 7.4, 150 mM NaCl, 0.1% (v/v) Tween20, 0.1% (w/v) BSA) in presence of 2-fold dilution series of unlabeled ChREBP peptide (0.01-10 µM). Dilution series were made in a polystyrene (non-binding) low-volume Corning Black Round Bottom 384-well plates (Corning 4514 or 4511). Measurements were performed directly after plate preparation, using a Tecan Infinite F500 plate reader at room temperature (lex: 485 ± 20 nm; lem: 535 ± 25 nm; mirror: Dichroic 510; flashes: 20; integration time: 50 ms; settle time:
(§3) 0 ms; gain: optimal; and Z-position: calculated from well). Wells containing only FITC-peptide were used to set as G-factor at 35 mP. All data were analyzed using GraphPad Prism (7.00) for Windows and fitted using a four-parameter logistic model (4PL). […]
(§4) with R = 14-3-3, P = non-natural peptide (labelled), and C = ChREBP. The framework determined based on this system description the equilibrium equations needed to determine KDII and α. […] From this the model determined the KDII and α (with 95% confidence interval) and the error-landscape of the determine parameters. […]

Test [2] deals with 14-3-3γ with partner peptides (ChREBP, ERα, SOS1, B-Raf, ERRγ, USP8, PIN1, p65). As to the kind of experiment: FA selectivity study: 14-3-3 partner peptides titrated to preformed 14-3-3γ/FITC-2d complex. The settings on record: partner peptides titrated (from 100 μM) to 2 μM 14-3-3γ and 20 nM FITC-2d; n = 2. Type of test: binding, human. The procedure:
as §1, §2, §3, §4

Test [3] concerns the target 14-3-3. The conditions noted are these: hits of a 10^8-membered synthetic non-canonical phosphopeptide library; read-out: affinity for 14-3-3; cited from earlier work. The text has this:
We selected peptide 14-3-3.12, herein termed peptide 1, from the top hits for functional mapping. […] Further, the peptide completely occupies the 14-3-3 binding groove, thus allowing to explore both sides flanking 14-3-3's central phospho-accommodating pocket.

Where a SMILES comes first, the peptide text is derived from it. [ ]: non-standard residue; d: D form. The star is where a group is joined. ξ: configuration not given here. FITC = O=C1OC2(c3ccc(O)cc3Oc3cc(O)ccc32)c2ccc(NC(=S)*)cc21; Phe(4-NO2) = N[C@@H](Cc1ccc([N+](=O)[O-])cc1)C(=O)O; ξAla(4-thiazolyl) = NC(Cc1cscn1)C(=O)O; pS = N[C@@H](COP(=O)(O)O)C(=O)O; β3hS = N[C@@H](CO)CC(=O)O; Nva = CCC[C@H](N)C(=O)O; ξβ3hS = NC(CO)CC(=O)O; βAla = NCCC(=O)O

With `C[C@H](NC(=O)[C@H](CCCCN)NC(=O)[C@H](Cc1ccc([N+](=O)[O-])cc1)NC(=O)CCNC(=O)C[C@H](CO)NC(=O)[C@H](Cc1ccc([N+](=O)[O-])cc1)NC(=O)[C@@H](N)COP(=O)(O)O)C(=O)N[C@@H](CCCCNC(=S)Nc1ccc2c(c1)C(=O)OC21c2ccc(O)cc2Oc2cc(O)ccc21)C(N)=O` [2d] (H-[pS][Phe(4-NO2)][β3hS][βAla][Phe(4-NO2)]KAK(FITC)-NH2), the “cooperativity factor α” value in test [1] is given as 36. Further, the “selectivity of ternary complex formation over a panel of 14-3-3 partner peptides” value in test [2] is recorded as “highly selective ternary complex formation”.

Consider `CCC[C@H](NC(=O)[C@H](N)CCCCN)C(=O)N[C@@H](Cc1ccc([N+](=O)[O-])cc1)C(=O)NC(Cc1cscn1)C(=O)N[C@@H](COP(=O)(O)O)C(=O)N[C@@H](Cc1ccc([N+](=O)[O-])cc1)C(=O)NC(CO)CC(=O)NCCC(=O)N[C@@H](Cc1ccc([N+](=O)[O-])cc1)C(=O)N[C@@H](CCCCN)C(N)=O` (stereo partly drawn) [compound 1] (H-[dK][Nva][Phe(4-NO2)][ξAla(4-thiazolyl)][pS][Phe(4-NO2)][ξβ3hS][βAla][Phe(4-NO2)]K-NH2), for which the Kd in test [3] is 19 nM.
